The target in experiment [1] is T1, Zea mays asparagine synthetase Zm AsnS3 (SEQ ID NO: 6, encoded by SEQ ID NO: 5) (Zea mays, UniProt B5U8J8).
T1 construct: 588 aa
T1 sequence (B5U8J8 1-588): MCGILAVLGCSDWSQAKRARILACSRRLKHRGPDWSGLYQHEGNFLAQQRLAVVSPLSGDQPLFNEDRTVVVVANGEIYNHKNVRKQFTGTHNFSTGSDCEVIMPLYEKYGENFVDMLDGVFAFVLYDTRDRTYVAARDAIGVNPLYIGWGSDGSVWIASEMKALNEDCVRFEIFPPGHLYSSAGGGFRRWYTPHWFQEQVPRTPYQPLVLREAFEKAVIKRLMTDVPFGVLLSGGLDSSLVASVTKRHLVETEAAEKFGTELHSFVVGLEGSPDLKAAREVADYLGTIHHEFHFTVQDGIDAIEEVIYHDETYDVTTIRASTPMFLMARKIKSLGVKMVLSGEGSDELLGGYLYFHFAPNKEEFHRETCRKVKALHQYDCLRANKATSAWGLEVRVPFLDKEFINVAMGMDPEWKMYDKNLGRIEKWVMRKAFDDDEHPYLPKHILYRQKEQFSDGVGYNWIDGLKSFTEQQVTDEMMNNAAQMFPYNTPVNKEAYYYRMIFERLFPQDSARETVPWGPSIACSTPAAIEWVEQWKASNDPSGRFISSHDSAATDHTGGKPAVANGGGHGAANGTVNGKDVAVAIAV
The experiment is described as follows: Kinetics of recombinant his-tagged, refolded maize asparagine synthetase AsnS3 (substrate titration, asparagine by HPLC). Format: biochemical. Conditions: 100 mM Hepes, pH 8.0, 10 mM MgCl2, read-out: Km(NH4^+). How it is done:
(§1) The effect of expression of asparagine synthetase genes on asparagine synthetase activity was measured in transgenic events of pMON79706 and pMON92870. Frozen, ground leaf tissue was aliquoted (200-400 mg) into wells from a precooled 96 deep-well plate. Protein was extracted in Buffer A (100 mM Hepes-OH, pH 8.0, 0.1 mM EDTA, 10 mM MgCl2, 2 mM aspartate, 0.5 mM DTT, 67 mM mercaptoethanol, 20% (v/v) glycerol, 0.1 mM ATP, 1% (v/v) P9599 (Sigma Company), 25 mM KCl). A small amount of sand was added to each well. Buffer A was then added to the leaf tissue in the wells at a ratio of 4:1 (buffer:tissue). The plates were then agitated in a paint shaker for 2 min. to mix the sample and then centrifuged at 5000×g for 10 minutes. The supernatant (100-200 μL) was desalted in a 96-well macro spin plate (SNS S025L, The Nest Group Inc., Southboro, Mass.) equilibrated in buffer A. The supernatant was then either assayed immediately or frozen in liquid nitrogen and maintained at −80° C. until used. […] The mixture was then filtered to remove precipitate and asparagine was measured by HPLC. […]

For experiment [2], the target named is T2, Zea mays asparagine synthetase Zm AsnS2 (SEQ ID NO: 4, encoded by SEQ ID NO: 3) (Zea mays, UniProt B5U8J7).
T2 construct: 606 aa
T2 sequence (B5U8J7 1-606): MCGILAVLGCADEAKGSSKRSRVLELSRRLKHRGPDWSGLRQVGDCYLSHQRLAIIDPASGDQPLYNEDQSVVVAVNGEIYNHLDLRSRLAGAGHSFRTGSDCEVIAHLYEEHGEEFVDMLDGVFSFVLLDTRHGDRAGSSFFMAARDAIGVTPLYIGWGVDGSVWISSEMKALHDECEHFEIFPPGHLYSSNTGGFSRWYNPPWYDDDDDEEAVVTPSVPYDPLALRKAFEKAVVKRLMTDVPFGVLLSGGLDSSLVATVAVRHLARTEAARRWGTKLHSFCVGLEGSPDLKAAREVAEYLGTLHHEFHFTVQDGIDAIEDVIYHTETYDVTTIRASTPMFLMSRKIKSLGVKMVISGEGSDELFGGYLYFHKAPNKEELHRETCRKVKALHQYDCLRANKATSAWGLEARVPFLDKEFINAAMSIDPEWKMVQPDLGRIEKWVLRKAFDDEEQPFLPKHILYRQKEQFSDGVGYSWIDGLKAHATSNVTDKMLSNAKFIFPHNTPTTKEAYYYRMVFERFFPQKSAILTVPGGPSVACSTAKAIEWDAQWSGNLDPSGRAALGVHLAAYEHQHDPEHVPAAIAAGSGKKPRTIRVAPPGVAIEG
The experiment is described as follows: Kinetics of recombinant his-tagged, refolded maize asparagine synthetase AsnS2 (substrate titration, asparagine by HPLC). It is filed as biochemical. To be noted: Zm AsnS2; 100 mM Hepes, pH 8.0, 10 mM MgCl2; read-out: Km(NH4^+). How it is done:
as §1

The source of these data is patent US8357833B2, “Corn plants and seed enhanced for asparagine and protein” (priority 2007, dated 2013).

Each structure is given as a SMILES string.

The Km is the substrate concentration at which the rate is half of its maximum. On to `N` [NH4^+], for which the Michaelis-Menten constant (Km) in experiment [1] was found to be 8.4 mM; in experiment [2] it was 0.75 mM.
